Data from patent publication US10307471B2, “Immunity inducer for saccharide antigens” (NATIONAL INSTITUTE OF ADVANCED INDUSTRIAL SCIENCE AND …, priority 2013, dated 2019).
“Also recorded” adds a separate entry of the source.

Assays:
immunogen = assay: Serum antibody titer to the immunogen after immunity induction (ELISA); type: in vivo, mouse; conditions: for serum antibody titer to the immunogen, IgM subclass: mouse serum 3 and 7 days after final immunization vs unimmunized, liposome method with Lipid-A, ELISA; for serum antibody titer to the immunogen, IgG subclass: mouse serum after final immunization (7 days where stated) vs unimmunized, only primary additional immunization; for antibody titer in the IgG subclass: antigen not specified, data not shown
Description: (§1) Each immunogen was subcutaneously immunized on the first day, and additional immunization was abdominally conducted after two weeks. The blood was collected after 3 days and 7 days from the additional immunization to prepare serums. Antibody titers in the obtained serums were evaluated by ELISA. An immunogen and a glycoprotein containing an objective carbohydrate were used as solid-phased antigens by ELISA, and each was evaluated as an antibody titer to the immunogen and an antibody titer to the objective carbohydrate (FIGS. 1 to 4).
In order to evaluate subclasses (IgM and IgG) of produced immunoglobulin, evaluation was conducted using antibodies specific to IgM and IgG as secondary antibodies. An antibody titer was evaluated as an activity of peroxidase that is a labeling enzyme of a secondary antibody. TMB was used as a chromogenic substrate of peroxidase, and an intensity of an absorbance at 450 nm after adding 2 N-sulfuric acid after the reaction was evaluated. FIGS. 1 to 3 illustrate antibody titers of IgM subclass, and FIG. 4 illustrates antibody titers of IgG subclass.
Next, each of racemic forms of various immunity inducers (a1, b1 and c1) synthesized in Examples (1-1), (1-2) and (1-3) was dissolved into s lipid containing cholesterol and phospholipid with an adjuvant (Lipid-A), and immunized a mouse being a host generally producing a monoclonal antibody (C3H/HeN strain) in a liposome method (Eur. J. Immunol., 16, 951-956, 1986) to evaluate the immunity inducing ability.
Each of the immunity inducers was subcutaneously immunized and additionally abdominally immunized after 2 weeks. After the additional immunization, the blood was collected after 3 days and 7 days, and the serum was examined. The antibody titer in the obtained serum was evaluated by ELISA method. In ELISA method, using two types of antigens of an immunogen and a glycoprotein (Fetuin) containing 6′-Sialyl-LacNAc, 3′-Sialyl-LacNAc and LacNAc structures, they were evaluated as an antibody titer to the immunogen and an antibody titer to the objective carbohydrate, respectively.
In addition, in order to evaluate subclasses (IgM and IgG) of immunoglobulin, an antibody specific to IgM and IgG was used as a secondary antibody to evaluate the subclasses. The antibody titer was evaluated as an activity of peroxidase that is a labeling enzyme of a secondary antibody. TMB was used for a chromogenic substrate of peroxidase, and an intensity of an absorbance at 450 nm after adding 2 N-sulfuric acid after the reaction was evaluated.
Each of the immunity inducers was subcutaneously immunized on the first day, and the carrier compound was additionally abdominally immunized after 2 weeks. After the additional immunization, the blood was collected after 3 days and 7 days to prepare serums. Antibody titers of the obtained serums were evaluated by ELISA method. In ELISA method, using two types of antigens of an immunogen and a glycoprotein (Fetuin) containing a 6′-Sialyl-LacNAc structure, they were evaluated as an antibody titer to the immunogen and an antibody titer to the objective sugar chain, respectively. In addition, in order to evaluate subclasses (IgM and IgG) of produced immunoglobulin, an antibody specific to IgM and IgG was used as the secondary antibody to evaluate the subclasses. The antibody titer was evaluated as an activity of peroxidase that is a labeling enzyme of the secondary antibody. TMB was used for a chromogenic substrate of peroxidase, and an intensity of an absorbance at 450 nm after adding 2 N-sulfuric acid after the reaction was evaluated. […] Among the evaluated compounds, the antibody titer of a2 was the lowest, and the activity of a3-1 was the highest in the examined compounds.

glycoprotein (Fetuin) = assay: Serum antibody titer to glycoprotein (Fetuin) after immunity induction (ELISA); type: in vivo; conditions: mouse serum 3 and 7 days after final immunization vs unimmunized; Fetuin-a used as antigen for c1
Description: as §1
In order to evaluate subclasses (IgM and IgG) of produced immunoglobulin, evaluation was conducted using antibodies specific to IgM and IgG as secondary antibodies. An antibody titer was evaluated as an activity of peroxidase that is a labeling enzyme of a secondary antibody. TMB was used as a chromogenic substrate of peroxidase, and an intensity of an absorbance at 450 nm after adding 2 N-sulfuric acid after the reaction was evaluated. FIGS. 1 to 3 illustrate antibody titers of IgM subclass, and FIG. 4 illustrates antibody titers of IgG subclass. […]
Each of the immunity inducers was subcutaneously immunized and additionally abdominally immunized after 2 weeks. […] The antibody titer in the obtained serum was evaluated by ELISA method. In ELISA method, using two types of antigens of an immunogen and a glycoprotein (Fetuin) containing 6′-Sialyl-LacNAc, 3′-Sialyl-LacNAc and LacNAc structures, they were evaluated as an antibody titer to the immunogen and an antibody titer to the objective carbohydrate, respectively.
In addition, in order to evaluate subclasses (IgM and IgG) of immunoglobulin, an antibody specific to IgM and IgG was used as a secondary antibody to evaluate the subclasses. The antibody titer was evaluated as an activity of peroxidase that is a labeling enzyme of a secondary antibody. TMB was used for a chromogenic substrate of peroxidase, and an intensity of an absorbance at 450 nm after adding 2 N-sulfuric acid after the reaction was evaluated. […]

glycoprotein (HL60) = assay: Serum antibody titer to HL60 glycoprotein after immunity induction (ELISA); type: in vivo, mouse
Description: FIG. 9 illustrates serum antibody titers after immunity inductions with sLe^X-C12L and Le^X-C12L: after immunizing a mouse using each of the sLe^X-C12L and Le^X-C12L compounds as an immunity inducer, an antibody titer of each subclass (IgM and IgG) of immunoglobulin in the serum was evaluated by ELISA. A and B show serum antibody titers of a mouse immunized with sLe^X-C12L, C and D show serum antibody titers of a mouse immunized with Le^X-C12. A and C: Evaluations on an immunogen used as an antigen by ELISA. B: Evaluation on a cell extract (HL60) containing a glycoprotein including an epitope of a target carbohydrate used as an antigen by ELISA. […]
Each immunogen was subcutaneously immunized on the first day, and additional immunization was abdominally conducted after two weeks. […] Antibody titers in the obtained serums were evaluated by ELISA. An immunogen and a glycoprotein containing an objective carbohydrate were used as solid-phased antigens by ELISA, and each was evaluated as an antibody titer to the immunogen and an antibody titer to the objective carbohydrate (FIGS. 1 to 4).
In order to evaluate subclasses (IgM and IgG) of produced immunoglobulin, evaluation was conducted using antibodies specific to IgM and IgG as secondary antibodies. An antibody titer was evaluated as an activity of peroxidase that is a labeling enzyme of a secondary antibody. […]

[1] = system: glycoprotein (Fetuin) containing a 6′-Sialyl-LacNAc (CDw75) carbohydrate structure; conditions: Non Patent Literature 8, cited from earlier work

Row | Molecule | serum antibody titer to the immunogen, IgM subclass (immunogen) | serum antibody titer to the immunogen, IgG subclass (immunogen) | antibody titer in the IgG subclass (immunogen) | serum antibody titer to glycoprotein (Fetuin), IgM subclass (glycoprotein (Fetuin)) | further results
1 | CCCCCCCCCCCCC/C=C/[C@@H](O)C(CO[C@@H]1OC(CO)[C@@H](O[C@@H]2OC(CO)[C@H](O[C@H]3OC(CO)[C@H](O)C(O[C@@H]4OC(CO)[C@H](O)C(O)C4NC(C)=O)C3O)C(O)C2O)C(O)C1O)NC(=O)CCCCCCCCCCCCCCCCCCCCCCC (stereo partly drawn) [Globoside, GalNAcβ1,3Galα1,4Galβ1,4Glcβ1-Cer, reference compound] | significantly increased | not confirmed | – | – | serum antibody titer to the immunogen, IgM subclass (immunogen; listed as globoside): significant increase of the antibody titer
2 | CCCCCCCCCCCCCCCCCC(=O)NC(CCCCCCCCCC)CO[C@@H]1OC(CO)[C@@H](O[C@@H]2OC(CO[C@]3(C(=O)O)CC(O)[C@@H](NC(C)=O)C([C@H](O)[C@H](O)CO)O3)[C@H](O)C(O)C2O)C(O)C1NC(C)=O (stereo partly drawn) [a1, Siaα2,6Galβ1,4GlcNAcβ1-CerA] | significantly increased; also recorded: significant increases of antibody titers | – | not observed | significantly increased; also recorded: significant increases of antibody titers | –
3 | CCCCCCCCCCC(CO[C@@H]1OC(CO)[C@@H](O[C@@H]2OC(CO[C@]3(C(=O)O)CC(O)[C@@H](NC(C)=O)C([C@H](O)[C@H](O)CO)O3)[C@H](O)C(O)C2O)C(O)C1NC(C)=O)NC(C)=O (stereo partly drawn) [a2, reference compound] | significant increases of antibody titers | – | – | significant increases of antibody titers | rank of antibody titer / activity among the evaluated compounds (immunogen; a1, a2, a3-1, a3-2, a3-3 compared, IgM subclass): lowest
4 | CCCCCCCCCCCCCCCCCCCCCCCC(=O)N[C@@H](CCCCCCCCCC)CO[C@@H]1O[C@H](CO)[C@@H](O[C@@H]2O[C@H](CO)[C@H](O)[C@H](O[C@]3(C(=O)O)C[C@H](O)[C@@H](NC(C)=O)[C@H]([C@H](O)[C@H](O)CO)O3)[C@H]2O)[C@H](O[C@@H]2O[C@@H](C)[C@@H](O)[C@@H](O)[C@@H]2O)[C@H]1NC(C)=O [sLe^X-C12L, Siaα2,3Galβ1,4(Fucα1,3)GlcNAcβ1-C12L] | significant increases of antibody titers | tendency of an increase of an antibody titer | – | – | serum antibody titer to glycoprotein (HL60), IgG subclass (glycoprotein (HL60); only primary additional immunization): significant increase of an antibody titer; serum antibody titer to glycoprotein (HL60), IgM subclass (glycoprotein (HL60); serums after 3 days and 7 days from the immunization): significant increases of antibody titers
5 | Siaα2,3-Galβ1,4GlcNAcβ1-CerA [b1] | significantly increased; also recorded: significant increases of antibody titers | – | not observed | significantly increased; also recorded: significant increases of antibody titers | –
6 | phosphatidylethanolamine | – | – | – | – | appearance ratio of positive clones, conventional technique ([1]; 581 wells): 1.3%; positive clones, conventional technique ([1]; out of selected 581 wells): 8 wells
